Results as given in ChEMBL document CHEMBL1130557, “Synthesis and biological evaluation of 14-alkoxymorphinans. 14.1 14-ethoxy-5-methyl substituted indolomorphinans with opioid receptor selectivity” (Bioorg Med Chem Lett, 1997).

What was measured:
Cavia porcellus [1] = species: Cavia porcellus; experiment: Compound was evaluated for the percent inhibition of electrically evoked twitch height at 10 uM concentration in guinea pig ileum (GPI); format: functional
Mus musculus = species: Mus musculus; experiment: Compound was evaluated for the percent inhibition of electrically evoked twitch height at 10 uM concentration in mouse vas deferens (MVD); format: functional
Mu-type opioid receptor = Mu-type opioid receptor (Rattus norvegicus, UniProt P33535); experiment: Compound was evaluated for the binding affinity towards mu opioid receptor in rat brain homogenates using [3H]DAMGO as radioligand; format: tissue-based
[2] = target: T1, Delta-type opioid receptor (Rattus norvegicus, UniProt P33533); experiment: Compound was evaluated for the binding affinity towards Opioid receptor delta 1 in rat brain homogenates using [3H]DIDI as radioligand; format: tissue-based
[3] = target: T1, Delta-type opioid receptor; experiment: Compound was evaluated for the binding affinity towards Opioid receptor delta 1 in rat brain homogenates using [3H]naltrindole as radioligand; format: tissue-based
[4] = target: Kappa-type opioid receptor (Rattus norvegicus, UniProt P34975); experiment: Compound was evaluated for the binding affinity towards Opioid receptor kappa 1 in rat brain homogenates using [3H]U-69593 as radioligand; format: tissue-based
[5] = target: Kappa-type opioid receptor (Mus musculus) (UniProt P33534)
Description: Tested for antagonist activity against Opioid receptor kappa 1 in mouse vas deferens preparation by using C1977 as antagonist

Cavia porcellus [6] = species: Cavia porcellus; experiment: Compound was evaluated for the percent inhibition of twitch height at 10 uM concentration in guinea pig ileum assay; format: functional

Kappa-type opioid receptor, sequence (P34975 whole entry): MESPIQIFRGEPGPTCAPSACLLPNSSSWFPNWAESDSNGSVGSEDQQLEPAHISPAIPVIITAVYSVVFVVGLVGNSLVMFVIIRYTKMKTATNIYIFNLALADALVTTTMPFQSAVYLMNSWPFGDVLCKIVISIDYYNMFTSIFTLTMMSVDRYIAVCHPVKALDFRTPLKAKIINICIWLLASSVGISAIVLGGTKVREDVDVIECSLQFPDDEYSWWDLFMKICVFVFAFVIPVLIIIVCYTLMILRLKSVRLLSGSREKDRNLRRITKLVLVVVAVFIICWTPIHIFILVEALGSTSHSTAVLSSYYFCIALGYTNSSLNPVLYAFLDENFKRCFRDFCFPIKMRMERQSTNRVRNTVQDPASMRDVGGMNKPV
Mu-type opioid receptor, sequence (P33535 whole entry): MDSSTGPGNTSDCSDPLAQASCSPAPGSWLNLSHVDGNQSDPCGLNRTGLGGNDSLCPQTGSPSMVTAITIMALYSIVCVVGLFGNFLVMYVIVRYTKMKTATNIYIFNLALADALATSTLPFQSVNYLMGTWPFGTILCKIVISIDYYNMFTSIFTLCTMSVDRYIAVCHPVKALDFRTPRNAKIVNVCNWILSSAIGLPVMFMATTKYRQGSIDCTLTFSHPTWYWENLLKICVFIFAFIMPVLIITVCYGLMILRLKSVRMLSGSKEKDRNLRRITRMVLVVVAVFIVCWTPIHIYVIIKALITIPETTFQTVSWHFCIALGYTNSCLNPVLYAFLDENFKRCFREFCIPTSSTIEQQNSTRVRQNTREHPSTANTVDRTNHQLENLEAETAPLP
T1 sequence (P33533 whole entry): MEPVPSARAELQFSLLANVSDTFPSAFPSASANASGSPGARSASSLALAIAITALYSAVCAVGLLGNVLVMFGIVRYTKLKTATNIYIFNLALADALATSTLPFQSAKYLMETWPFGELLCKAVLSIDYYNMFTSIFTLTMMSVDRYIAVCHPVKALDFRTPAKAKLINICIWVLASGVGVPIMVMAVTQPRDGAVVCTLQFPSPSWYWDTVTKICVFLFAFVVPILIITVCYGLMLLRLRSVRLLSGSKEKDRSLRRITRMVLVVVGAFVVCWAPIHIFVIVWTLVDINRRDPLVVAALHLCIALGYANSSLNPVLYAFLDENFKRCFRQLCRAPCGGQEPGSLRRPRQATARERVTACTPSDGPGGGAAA
Kappa-type opioid receptor (Mus musculus), sequence (P33534 whole entry): as the sequence (P34975 whole entry) above, with E11D, A17S, P51S, V308A counted along it

| SMILES | inhibition at 10 µM (Cavia porcellus [1]) | inhibition at 10 µM (Mus musculus) | Ki (Mu-type opioid receptor) | Ki [2] | Ki [3] | Ki [4] | Ke [5] | inhibition at 10 µM (Cavia porcellus [6]) |
| --- | --- | --- | --- | --- | --- | --- | --- | --- |
| CCO[C@@]12Cc3c([nH]c4ccccc34)[C@]3(C)Oc4c(O)ccc5c4[C@@]31CCN(CC1CC1)C2C5 | 32% | 23% | 38.7 nM | 14 nM | 0.78 nM | 59.2 nM | 529 nM | – |
| CCO[C@@]12Cc3c([nH]c4ccccc34)[C@]3(C)Oc4c(O)ccc5c4[C@@]31CCN(C)[C@@H]2C5 | – | – | 715 nM | 8.81 nM | 5.75 nM | 286 nM | – | 21% |
| C=CCN1CC[C@]23c4c5ccc(O)c4O[C@@]2(C)c2[nH]c4ccccc4c2C[C@@]3(OCC)[C@H]1C5 | – | – | 667 nM | 29.9 nM | 10.8 nM | 765 nM | – | – |
| Oc1ccc2c3c1O[C@H]1c4[nH]c5ccccc5c4C[C@@]4(O)[C@@H](C2)N(CC2CC2)CC[C@]314 [NALTRINDOLE] | – | – | – | 0.09 nM | 0.33 nM | – | – | – |
